Converted amounts (≈) assume the structure as drawn. One block for each compound: values may come before it.
Legend:
Assay type in all cases: functional
[1] = tested on: Candida albicans; assay: Antimicrobial activity against Candida albicans MTCC3958 measured after 24 hrs by well-diffusion method; details: MTCC3958, 24 h
[2] = tested on: Bacillus subtilis; assay: Bactericidal activity against Bacillus subtilis MTCC121 measured after 24 hrs; details: MTCC121, 24 h
[3] = tested on: Staphylococcus aureus; assay: Antimicrobial activity against Staphylococcus aureus MLS16 MTCC2940 measured after 24 hrs by well-diffusion method; details: MLS16 MTCC2940, 24 h
[4] = tested on: Candida albicans; assay: Antimicrobial activity against Candida albicans MTCC183 measured after 24 hrs by well-diffusion method; details: MTCC183, 24 h
[5] = tested on: Micrococcus luteus; assay: Bactericidal activity against Micrococcus luteus MTCC2470 measured after 24 hrs; details: MTCC2470, 24 h
[6] = tested on: Escherichia coli; assay: Antimicrobial activity against Escherichia coli MTCC739 measured after 24 hrs by well-diffusion method; details: MTCC739, 24 h
[7] = tested on: Candida albicans; assay: Antimicrobial activity against Candida albicans MTCC227 measured after 24 hrs by well-diffusion method; details: MTCC227, 24 h
[8] = tested on: Candida albicans; assay: Antimicrobial activity against Candida albicans MTCC4748 measured after 24 hrs by well-diffusion method; details: MTCC4748, 24 h
[9] = tested on: Pseudomonas aeruginosa; assay: Antimicrobial activity against Pseudomonas aeruginosa MTCCM2453 measured after 24 hrs by well-diffusion method; details: MTCCM2453, 24 h
[10] = tested on: Staphylococcus aureus; assay: Bactericidal activity against Staphylococcus aureus MLS16 MTCC2940 measured after 24 hrs; details: MLS16 MTCC2940, 24 h
[11] = tested on: Staphylococcus aureus; assay: Bactericidal activity against Staphylococcus aureus MTCC96 measured after 24 hrs; details: MTCC96, 24 h
[12] = tested on: Candida albicans; assay: Antimicrobial activity against Candida albicans MTCC7315 measured after 24 hrs by well-diffusion method; details: MTCC7315, 24 h
[13] = tested on: Candida albicans; assay: Antimicrobial activity against Candida albicans MTCC3017 measured after 24 hrs by well-diffusion method; details: MTCC3017, 24 h
[14] = tested on: Staphylococcus aureus; assay: Antimicrobial activity against Staphylococcus aureus MTCC96 measured after 24 hrs by well-diffusion method; details: MTCC96, 24 h
[15] = tested on: Micrococcus luteus; assay: Antimicrobial activity against Micrococcus luteus MTCC2470 measured after 24 hrs by well-diffusion method; details: MTCC2470, 24 h
[16] = tested on: Bacillus subtilis; assay: Antimicrobial activity against Bacillus subtilis MTCC121 measured after 24 hrs by well-diffusion method; details: MTCC121, 24 h
[17] = tested on: Candida parapsilosis; assay: Antimicrobial activity against Candida parapsilosis MTCC1744 measured after 24 hrs by well-diffusion method; details: Lodderomyces parapsilosis, MTCC1744, 24 h
[18] = tested on: Candida albicans; assay: Antimicrobial activity against Candida albicans MTCC3018 measured after 24 hrs by well-diffusion method; details: MTCC3018, 24 h
[19] = tested on: Raoultella planticola; assay: Antimicrobial activity against Klebsiella planticola MTCC530 measured after 24 hrs by well-diffusion method; details: MTCC530, 24 h
[20] = tested on: Candida albicans; assay: Antimicrobial activity against Candida albicans MTCC1637 measured after 24 hrs by well-diffusion method; details: MTCC1637, 24 h
[21] = tested on: Candida albicans; assay: Antimicrobial activity against Candida albicans MTCC854 measured after 24 hrs by well-diffusion method; details: MTCC854, 24 h
[22] = tested on: Candida albicans; assay: Fungicidal activity against Candida albicans MTCC4748 measured after 24 hrs; details: MTCC4748, 24 h
[23] = tested on: Candida albicans; assay: Fungicidal activity against Candida albicans MTCC1637 measured after 24 hrs; details: MTCC1637, 24 h
[24] = tested on: Candida albicans; assay: Fungicidal activity against Candida albicans MTCC183 measured after 24 hrs; details: MTCC183, 24 h
[25] = tested on: Bacillus subtilis; assay: Anti-biofilm activity against Bacillus subtilis MTCC121 measured after 24 hrs by crystal violet-staining based method; details: MTCC121, 24 h
[26] = tested on: Pichia sporocuriosa; assay: Antimicrobial activity against Issatchenkia hanoiensis MTCC4755 measured after 24 hrs by well-diffusion method; details: MTCC4755, 24 h
[27] = tested on: Candida parapsilosis; assay: Fungicidal activity against Candida parapsilosis MTCC1744 measured after 24 hrs; details: Lodderomyces parapsilosis, MTCC1744, 24 h
[28] = tested on: Pichia kudriavzevii; assay: Anti-biofilm activity against Candida krusei MTCC3020 measured after 24 hrs by crystal violet-staining based method; details: MTCC3020, 24 h
[29] = tested on: Candida albicans; assay: Fungicidal activity against Candida albicans MTCC7315 measured after 24 hrs; details: MTCC7315, 24 h
[30] = tested on: Candida albicans; assay: Fungicidal activity against Candida albicans MTCC227 measured after 24 hrs; details: MTCC227, 24 h
[31] = tested on: Micrococcus luteus; assay: Anti-biofilm activity against Micrococcus luteus MTCC2470 measured after 24 hrs by crystal violet-staining based method; details: MTCC2470, 24 h
[32] = tested on: [Candida] aaseri; assay: Fungicidal activity against Candida aaseri MTCC1962 measured after 24 hrs; details: Yamadazyma aaseri, MTCC1962, 24 h
[33] = tested on: Pichia kudriavzevii; assay: Fungicidal activity against Candida krusei MTCC3020 measured after 24 hrs; details: MTCC3020, 24 h
[34] = tested on: Pichia kudriavzevii; assay: Antimicrobial activity against Candida krusei MTCC3020 measured after 24 hrs by well-diffusion method; details: MTCC3020, 24 h
[35] = tested on: Staphylococcus aureus; assay: Anti-biofilm activity against Staphylococcus aureus MLS16 MTCC2940 measured after 24 hrs by crystal violet-staining based method; details: MLS16 MTCC2940, 24 h
[36] = tested on: Nakaseomyces glabratus; assay: Antimicrobial activity against Candida glabrata MTCC3019 measured after 24 hrs by well-diffusion method; details: MTCC3019, 24 h
[37] = tested on: Candida albicans; assay: Fungicidal activity against Candida albicans MTCC3958 measured after 24 hrs; details: MTCC3958, 24 h
[38] = tested on: Candida albicans; assay: Fungicidal activity against Candida albicans MTCC3018 measured after 24 hrs; details: MTCC3018, 24 h
[39] = tested on: Staphylococcus aureus; assay: Anti-biofilm activity against Staphylococcus aureus MTCC96 measured after 24 hrs by crystal violet-staining based method; details: MTCC96, 24 h
[40] = tested on: Nakaseomyces glabratus; assay: Fungicidal activity against Candida glabrata MTCC3019 measured after 24 hrs; details: MTCC3019, 24 h
[41] = tested on: Candida albicans; assay: Fungicidal activity against Candida albicans MTCC854 measured after 24 hrs; details: MTCC854, 24 h

Compound: CCCCCCC(C/C=C\CCCCCCCC(=O)OC)NC(=O)[C@@H](N)[C@@H](C)CC (some centres not stated)
MIC [1]: > 125 µg/mL
MIC [3]: > 125 µg/mL
MIC [4]: > 125 µg/mL
MIC [6]: > 125 µg/mL
MIC [7]: > 125 µg/mL
MIC [8]: > 125 µg/mL
MIC [9]: > 125 µg/mL
MIC [12]: > 125 µg/mL
MIC [13]: > 125 µg/mL
MIC [14]: > 125 µg/mL
MIC [15]: > 125 µg/mL
MIC [16]: > 125 µg/mL
MIC [18]: > 125 µg/mL
MIC [19]: > 125 µg/mL
MIC [20]: > 125 µg/mL
MIC [21]: > 125 µg/mL

Compound: O=C(O)c1cn(C2CC2)c2cc(N3CCNCC3)c(F)cc2c1=O [CIPROFLOXACIN]
MBC [2]: 0.7 to 1.9 µg/mL (≈ 2.11 to 5.73 µM)
MIC [3]: 0.9 µg/mL (≈ 2.72 µM)
MBC [5]: 0.7 to 1.9 µg/mL (≈ 2.11 to 5.73 µM)
MIC [6]: 0.9 µg/mL (≈ 2.72 µM)
MIC [9]: 0.9 µg/mL (≈ 2.72 µM)
MBC [10]: 0.7 to 1.9 µg/mL (≈ 2.11 to 5.73 µM)
MBC [11]: 0.7 to 1.9 µg/mL (≈ 2.11 to 5.73 µM)
MIC [14]: 0.9 µg/mL (≈ 2.72 µM)
MIC [15]: 0.9 µg/mL (≈ 2.72 µM)
MIC [16]: 0.9 µg/mL (≈ 2.72 µM)
MIC [19]: 0.9 µg/mL (≈ 2.72 µM)

Compound: Clc1ccc(COC(Cn2ccnc2)c2ccc(Cl)cc2Cl)c(Cl)c1 (configuration not stated) [MICONAZOLE]
MIC [1]: 7.8 µg/mL (≈ 18.7 µM)
MIC [4]: 7.8 µg/mL (≈ 18.7 µM)
MIC [26]: 7.8 µg/mL (≈ 18.7 µM)
MIC [7]: 7.8 µg/mL (≈ 18.7 µM)
MIC [8]: 7.8 µg/mL (≈ 18.7 µM)
MIC [12]: 7.8 µg/mL (≈ 18.7 µM)
MIC [13]: 7.8 µg/mL (≈ 18.7 µM)
MIC [34]: 7.8 µg/mL (≈ 18.7 µM)
MIC [36]: 7.8 µg/mL (≈ 18.7 µM)
MIC [17]: 7.8 µg/mL (≈ 18.7 µM)
MIC [18]: 7.8 µg/mL (≈ 18.7 µM)
MIC [20]: 7.8 µg/mL (≈ 18.7 µM)
MIC [21]: 7.8 µg/mL (≈ 18.7 µM)

Further lines, with some results ahead:

MIC [1]: 7.8 µg/mL (≈ 20.4 µM)
MIC [3]: 15.6 µg/mL (≈ 40.8 µM)
MIC [4]: 15.6 µg/mL (≈ 40.8 µM)
MIC [6]: > 125 µg/mL
MIC [7]: 15.6 µg/mL (≈ 40.8 µM)
MIC [8]: 15.6 µg/mL (≈ 40.8 µM)
MIC [9]: > 125 µg/mL
MIC [12]: 15.6 µg/mL (≈ 40.8 µM)
MIC [13]: 15.6 µg/mL (≈ 40.8 µM)
MIC [14]: 7.8 µg/mL (≈ 20.4 µM)
MIC [15]: 31.2 µg/mL (≈ 81.5 µM)
MIC [16]: 15.6 µg/mL (≈ 40.8 µM)
MIC [17]: 7.8 µg/mL (≈ 20.4 µM)
MIC [18]: 15.6 µg/mL (≈ 40.8 µM)
MIC [20]: 15.6 µg/mL (≈ 40.8 µM)
MIC [21]: 15.6 µg/mL (≈ 40.8 µM)
Compound: CCCCCCC(C/C=C\CCCCCCCC(=O)OC)NC(=O)[C@H](C)N (some centres not stated)
MBC [2]: 15.6 µg/mL (≈ 40.8 µM)
MBC [5]: 15.6 µg/mL (≈ 40.8 µM)
MBC [10]: 15.6 µg/mL (≈ 40.8 µM)
MBC [11]: 15.6 µg/mL (≈ 40.8 µM)
MIC [19]: > 125 µg/mL

MIC [1]: 7.8 µg/mL (≈ 21.2 µM)
MIC [3]: 7.8 µg/mL (≈ 21.2 µM)
MIC [4]: 7.8 µg/mL (≈ 21.2 µM)
IC50 [25]: 2.9 µg/mL (≈ 7.87 µM)
MIC [26]: 7.8 µg/mL (≈ 21.2 µM)
IC50 [28]: 4.1 µg/mL (≈ 11.1 µM)
MIC [6]: > 125 µg/mL
MIC [7]: 7.8 µg/mL (≈ 21.2 µM)
MIC [8]: 7.8 µg/mL (≈ 21.2 µM)
MIC [9]: > 125 µg/mL
IC50 [31]: 1.9 µg/mL (≈ 5.16 µM)
MIC [12]: 7.8 µg/mL (≈ 21.2 µM)
MIC [13]: 7.8 µg/mL (≈ 21.2 µM)
MIC [34]: 7.8 µg/mL (≈ 21.2 µM)
IC50 [35]: 4.1 µg/mL (≈ 11.1 µM)
MIC [14]: 3.9 µg/mL (≈ 10.6 µM)
MIC [36]: 7.8 µg/mL (≈ 21.2 µM)
MIC [15]: 3.9 µg/mL (≈ 10.6 µM)
IC50 [39]: 2.1 µg/mL (≈ 5.7 µM)
MIC [16]: 7.8 µg/mL (≈ 21.2 µM)
MIC [17]: 7.8 µg/mL (≈ 21.2 µM)
MIC [18]: 7.8 µg/mL (≈ 21.2 µM)
MIC [20]: 7.8 µg/mL (≈ 21.2 µM)
MIC [21]: 7.8 µg/mL (≈ 21.2 µM)
Compound: CCCCCCC(C/C=C\CCCCCCCC(=O)OC)NC(=O)CN (configuration not stated)
MFC [22]: 7.8 to 31.2 µg/mL (≈ 21.2 to 84.7 µM)
MBC [2]: 7.8 µg/mL (≈ 21.2 µM)
MFC [23]: 7.8 to 31.2 µg/mL (≈ 21.2 to 84.7 µM)
MFC [24]: 7.8 to 31.2 µg/mL (≈ 21.2 to 84.7 µM)
MFC [27]: 7.8 to 31.2 µg/mL (≈ 21.2 to 84.7 µM)
MBC [5]: 7.8 µg/mL (≈ 21.2 µM)
MFC [29]: 7.8 to 31.2 µg/mL (≈ 21.2 to 84.7 µM)
MFC [30]: 7.8 to 31.2 µg/mL (≈ 21.2 to 84.7 µM)
MBC [10]: 7.8 µg/mL (≈ 21.2 µM)
MBC [11]: 7.8 µg/mL (≈ 21.2 µM)
MFC [32]: 7.8 to 31.2 µg/mL (≈ 21.2 to 84.7 µM)
MFC [33]: 7.8 µg/mL (≈ 21.2 µM)
MFC [37]: 7.8 to 31.2 µg/mL (≈ 21.2 to 84.7 µM)
MFC [38]: 7.8 to 31.2 µg/mL (≈ 21.2 to 84.7 µM)
MFC [40]: 7.8 to 31.2 µg/mL (≈ 21.2 to 84.7 µM)
MFC [41]: 7.8 to 31.2 µg/mL (≈ 21.2 to 84.7 µM)
MIC [19]: > 125 µg/mL

Reference: ChEMBL document CHEMBL3865846, “Synthesis and biological evaluation of ricinoleic acid-based lipoamino acid derivatives” (Bioorg Med Chem Lett, 2016)
